Read-outs that look alike come from different tables or passages of the source.
What was measured:
[1] = test system: adjuvant arthritis in Lewis rats; assay: Adjuvant arthritis (AA) in rats; assay type: in vivo
[2] = test system: mortality after gamma irradiation; assay: Radioprotective effect in gamma-irradiated mice; assay type: in vivo, BALB/c mice
Description: Groups of female BALB/c mice, 8 weeks old, 5-10 mice per group, were injected subcutaneously with either saline (0.1 ml, control), H-9392 (30 ng/mouse), or glucosamine (10,000 ng/mouse) 1 day before irradiation, and weekly thereafter until termination of the experiment on day 30. All the mice were irradiated to a dose of 700 rads using a ^60Co gamma radiation source.
In a separate experiment, groups of BALB/c mice (5 mice to a group) were likewise exposed to 750 rads of gamma-rays, except that these groups of mice were treated with test substances (saline at 0.1 ml per mouse; H-9392 at 0.3, 3, 30 and 300 ng/mouse; and glucosamine at 1, 10 and 100 µg/mouse) on the day before irradiation, on the sixth day after irradiation, and once again on the thirteenth day after irradiation only. All treatment ceased after the third and last administration.

IDDM of NOD mice = assay: Insulin dependent diabetes mellitus (IDDM) of NOD mice; assay type: in vivo
ELAM-1 = assay: TNF-α-induced expression of adhesion molecules by endothelial cells (ELISA); conditions: for Recombinant human TNFα-induced adhesion molecules (O.D 492): 1 h pretreatment of EC, TNFα alone 1.2±0.1
[3] = test system: experimental DTH reaction in mice; assay: In vivo bioassay of inhibition of experimental DTH reactivity (oxazolone ear swelling); parameters: species or system mice (BALB/c or CD1); conditions: CD1 mice, s.c.
Description: Groups of inbred BALB/c (Jackson Laboratories, Bar Harbor, ME) or of outbred CD1 (Weizmann Institute Animal Breeding Center, Rehovot, Israel) mice are sensitized on the shaved abdominal skin with 100 µl of 2% oxazolone (OX) in acetone/olive oil (4/1, v/v) applied topically. DTH sensitivity is elicited 5 days later as follows: mice are challenged with 20 µl of 0.5% OX (10 µl administered topically to each side of the ear) in acetone/olive oil. A constant area of the ear is measured immediately before challenge and 24 and 48 h later with a Mitutoyo engineer's micrometer. The individual measuring ear swelling is blinded to the identity of the groups of mice. The increment (△) of ear swelling is expressed as the mean in units of 10^-2 mm or 10^-4 inch (+SE) depending on the micrometer that is used. Percent inhibition is calculated as follows: %Inhibition= 1-((Treated-negative control)/(positive control-negative control)) [formula]
Mice are treated with LMWH as in Example 5.1, injected the day before primary sensitization to OX. On the fifth day after sensitization to OX, the mice are challenged to induce a DTH reaction, as described above.
The positive control is the DTH reaction elicited in immunized mice in the absence of treatment with LMWH. The negative control is the background swelling produced by the antigen in naive (non-immunized) mice.
BALB/c mice (at least 5 mice per group) were sensitized on the shaved abdomen with 3% 4-ethoxymethylene-2-phenyl oxazolone (OX; BDH Chemicals, GB) in acetone/olive oil applied topically. DTH sensitivity was elicited 5 days later as follows. Mice were challenged with 0.5% OX in acetone/olive oil. The ear was measured immediately before challenge and 24 h later with Mitutoyo engineer's micrometer (Japan). The individual measuring the swelling of the ear was blinded to the identity of the groups of mice. To interfere with DTH response, the low molecular weight immuno-regulatory fractions, diluted in PBS, were administrated subcutaneously into the back of the treated mice at the indicated time schedules and concentrations. Treated mice were inspected during and after (>2 months) the treatment and no major side-effects were observed clinically.
In particular, CD1 mice (available from the Weizmann Institute Animal Breeding Center, Rehovot, Israel), 4-12 mice per group, were treated as described in Section 5.2 or 6.8.

LPS-induced uveitis = conditions: for Median Protein: LPS with saline 18.4, no LPS 0.36
[4] = test system: respiratory distress after aerosolized OVA challenge; assay: Experimental allergic bronchial asthma in rats; assay type: in vivo, Brown Norway rats; conditions: 30 ng s.c. on day 30, challenge on day 35; saline group Grade 3 or 4
Description: To assess the ability of substance H-9392 to prevent a bronchial asthma attack, 6 male Brown Norway rats were primed to ovalbumin (OVA) by subcutaneous injection of 1 mg of OVA in suspension with 200 mg AlOH/ml 0.9% saline solution accompanied by intraperitoneal injection of 1 ml solution containing 6x10^6 heat killed Bordetella pertussis bacteria (Pasteur Merieux, S.V.), on day zero. Subsequent challenges consisted of a 5 minute period of inhalation of OVA (1 mg/ml solution) aerosolized in a Devilbiss Nebulizer operated at an airflow of 6 L/min. Respiratory Distress (RD) responses were scored as Grade 0, no signs of distress; Grade 1, tachypnea; Grade 2, moderate labored breathing; Grade 3 severe labored breathing with mouth open; Grade 4, loss of consciousness and muscular tone. Sixteen days following primary immunization all animals were exposed to an initial aerosolized challenge to establish the positive control. The animals were coded so that the observer was ignorant of the subject animal's history.
On day thirty, the animals were divided into 2 groups and given either saline (control Group A) or 30 ng of substance H-9392, s.c., (Group B) and challenged on day 35 as above.

ICAM-1 = assay: TNF-α-induced expression of adhesion molecules by endothelial cells (ELISA); conditions: 1 h pretreatment of EC, TNFα alone 2.2±0.2

With `O=C(O)C1=C[C@H](O)[C@@H](OS(=O)(=O)O)[C@H](O[C@H]2[C@H](O)[C@@H](NS(=O)(=O)O)C(O)O[C@@H]2CO)O1` (stereo partly drawn) [H-9392, 2-O-sulfate-4-deoxy-4-en-iduronic acid-(α-1,4)-2-deoxy-2-N-sulfateglucosamine] the “suppression of the inflammation of AA” value ([1]; 120 ng/rat or 0.6 ng/gm rat s.c. weekly from 1 day before induction, 24 days after induction) was “up to 90%”, the “effect on AA, in words” value ([1]; weekly or daily, beginning at day 0 or at day 12) was “positive suppression of the severity of AA in all cases” and the “effect on AA at 30 days post-induction, in words” value ([1]; weekly s.c. from day 12 to day 26, 120 ng disaccharide or 100 µg dexamethasone phosphate per rat) was “almost complete suppression”. The mortality rate ([2]; 700 rads, by day 30, s.c. 1 day before irradiation and weekly, H-9392 30 ng/mouse, glucosamine 10,000 ng/mouse, saline 100%) was 40%, the “mice that had died by the thirtieth day after irradiation” value ([2]; 750 rads, 30 ng/mouse, three administrations, 5 mice to a group) was “only one mouse” and the “activity in suppressing mortality after irradiation, in words” value ([2]; 750 rads, three administrations, 300 ng H-9392, 1 µg glucosamine) was “moderate activity in suppressing mortality”. For the same molecule, the “mice that had become diabetic” value (IDDM of NOD mice; at 4.5 months, H-9392 30 ng/mouse, glucosamine 10,000 ng/mouse s.c., all control mice diabetic) was “less than 50%”, the “mice that had died, in words” value (IDDM of NOD mice; by age 5 months, H-9392 30 ng, glucosamine 10,000 ng, all control mice had died) was “none” and the “Recombinant human TNFα-induced adhesion molecules (O.D 492)” value (ELAM-1; 50 pg/ml, no TNFα 0.12±0.01) was 0.6±0.1 O.D 492. The “Recombinant human TNFα-induced adhesion molecules (O.D 492)” value (ELAM-1; 100 pg/ml) was 0.9±0.07 O.D 492, the “inhibition of the up regulation of EC expression of adhesion molecules induced by TNF-α” value (ELAM-1; ELAM-1 and ICAM-1 not told apart in the sentence) was “up to 50%” and the Inhmax [3] was 78%. The DTH ([3]; at that dose, value in parentheses in the cell taken as positive control, not reported) was 4.2 ± 0.7 (17.8 ± 0.9) 10^-2 mm, the dose window ([3]; broadest of the compounds tested) was 0.000132-0.004 µg/gm and the “"R" value” ([3]; inhibitory, 0 = no effect) was 6.5 x 10^4 % x (μg/gm)^-1. The “Median Protein” value (LPS-induced uveitis; 32 ng/rat at Day 1) was 5.2 mg/mL, the “Median Protein” value (LPS-induced uveitis; 500 ng/rat at Day 1) was 4.8 mg/mL and the “suppression of the inflammation relative to control” value (LPS-induced uveitis; single administration, at either dosage) was “over 70%”. The “respiratory distress after challenge, in words” value [4] was “mere tachypnea”, the “Recombinant human TNFα-induced adhesion molecules (O.D 492)” value (ICAM-1; 50 pg/ml, no TNFα 0.18±0.01) was 1.0±0.04 O.D 492 and the “Recombinant human TNFα-induced adhesion molecules (O.D 492)” value (ICAM-1; 100 pg/ml) was 1.4±0.03 O.D 492.

— patent publication EP1095657A2, “Compositions for the regulation of cytokine activity” (priority 1992, dated 1994)
